US20260078119A1, “DEGRADER COMPOUNDS AND USES THEREOF” (Bristol-Myers Squibb Company, priority 2024, published 2026)
pEC50: −log10 of the molar value. Where two headings read alike, the source gives them in different places.

Tests used:
CAL-51 cells = assay: CAL-51 Cell Proliferation Assay; type: cell-based; details: for pEC50: 120 hours incubation, 10-point dose response, 4-fold dilutions starting at 10 μM, Cell-Titer-Glo, read-out: CAL-51 Prolif EC50; for CAL-51 Prolif Ymin: minimal percent of DMSO control observed in the concentrations tested (Ymin-obs), 120 hours
How it was run: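 Cells seeded at 350/well in RPMI complete medium onto 10-point, 4-fold compound dilutions from 10 μM (0.1% DMSO), in duplicate, and grown 120 h at 37 °C. CellTiter-Glo luminescence, blank-subtracted and normalised to DMSO, was fitted with a four-parameter logistic to give EC50; Ymin-obs is the lowest observed percent of DMSO control.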

FAK = target: T1, FAK (Homo sapiens, UniProt Q05397); assay: FAK-HiBiT Degradation Assay; type: cell-based; details: for DC50: read-out: FAK HiBiT EC50; for FAK HiBiT Ymin: lower limit of the four parameter fit (value A), Ymax derived using DMSO control, JHH-4-FAK-HiBiT cells, two hours
T1 construct: homozygous knock-in of a HiBiT tag (Promega Corporation, Madison, WI) to the C-terminus of the FAK gene in its natural genomic locus; endogenous in cells; host or cells: JHH-4-FAK-HiBiT clone d01 (CRISPR-Cas9 knock-in at the endogenous locus)
T1 sequence (Q05397 whole entry): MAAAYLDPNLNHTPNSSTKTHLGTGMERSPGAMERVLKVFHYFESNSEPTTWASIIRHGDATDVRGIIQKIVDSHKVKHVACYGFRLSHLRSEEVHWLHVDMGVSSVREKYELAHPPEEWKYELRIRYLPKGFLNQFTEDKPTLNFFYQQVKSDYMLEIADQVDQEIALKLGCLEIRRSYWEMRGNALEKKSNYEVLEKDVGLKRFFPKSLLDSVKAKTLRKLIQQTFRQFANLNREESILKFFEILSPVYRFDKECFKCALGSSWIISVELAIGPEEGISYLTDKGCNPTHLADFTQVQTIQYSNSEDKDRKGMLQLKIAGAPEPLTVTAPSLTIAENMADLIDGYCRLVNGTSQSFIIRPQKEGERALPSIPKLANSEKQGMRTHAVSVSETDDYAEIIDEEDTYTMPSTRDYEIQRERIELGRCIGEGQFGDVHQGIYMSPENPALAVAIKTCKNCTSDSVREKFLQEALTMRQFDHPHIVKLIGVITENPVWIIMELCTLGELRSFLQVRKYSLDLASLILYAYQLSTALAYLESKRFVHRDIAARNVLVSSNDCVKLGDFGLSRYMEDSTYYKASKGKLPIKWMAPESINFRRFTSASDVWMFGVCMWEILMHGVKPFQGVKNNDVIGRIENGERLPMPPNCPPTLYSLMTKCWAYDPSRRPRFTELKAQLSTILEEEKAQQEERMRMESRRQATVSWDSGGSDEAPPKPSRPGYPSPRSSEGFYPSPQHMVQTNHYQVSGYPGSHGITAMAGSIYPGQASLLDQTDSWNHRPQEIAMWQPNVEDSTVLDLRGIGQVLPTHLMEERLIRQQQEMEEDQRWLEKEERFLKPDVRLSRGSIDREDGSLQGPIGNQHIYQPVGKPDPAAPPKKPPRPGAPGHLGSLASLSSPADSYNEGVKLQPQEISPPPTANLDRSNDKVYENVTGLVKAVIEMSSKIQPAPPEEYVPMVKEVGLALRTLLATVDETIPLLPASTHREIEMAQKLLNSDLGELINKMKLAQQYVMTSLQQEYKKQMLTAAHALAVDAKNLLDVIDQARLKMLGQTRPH
How it was run: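 JHH-4 cells with homozygous CRISPR knock-in of C-terminal HiBiT on endogenous FAK, treated 2 h at 37 °C with compounds in 10-point 3-fold series from 1 μM. HiBiT lytic luminescence read; EC50 from four-parameter logistic fit, Ymax set by DMSO control, Ymin as lower fit limit.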

[1] = JHH-4-FAK-HiBiT clone d01 cells, two hours incubation, 10-point dose response, 3-fold dilution starting at 1 μM, Nano-Glo HiBiT luminescence

Row | Compound | pEC50 (CAL-51 cells; Homo sapiens) | CAL-51 Prolif Ymin (CAL-51 cells) | DC50 (FAK; [1]) [nM] | FAK HiBiT Ymin (FAK) | pEC50 (CAL-51 cells) | pEC50 (FAK; [1])
1 | CC(C)Oc1cnc(-c2cc(N3CC(F)C3)nc3c2cnn3Cc2ccc3c(c2)CN([C@H]2CCC(=O)NC2=O)C3=O)c(Cl)c1 [Example 54, (3S)-3-[5-({4-[3-chloro-5-(propan-2-yloxy)pyridin-2-yl]-6-(3-fluoroazetidin-1-yl)-1H-pyrazolo[3,4-b]pyridin-1-yl}methyl)-1-oxo-2,3-dihydro-1H-isoindol-2-yl]piperidine-2,6-dione] | 9.14 | 25.81 | 2.47 | 6.69 | – | –
2 | O=C1CC[C@H](N2Cc3cc(Cn4ncc5c(-c6ncc(C(F)(F)F)cc6Cl)cc(N6CC[C@H](CCO)C6)nc54)ccc3C2=O)C(=O)N1 [Example 145, (S)-3-(5-((4-(3-chloro-5-(trifluoromethyl)pyridin-2-yl)-6-((R)-3-(2-hydroxyethyl)pyrrolidin-1-yl)-1H-pyrazolo[3,4-b]pyridin-1-yl)methyl)-1-oxoisoindolin-2-yl)piperidine-2,6-dione] | 7.13 | 66.44 | 51.9 | 47.34 | – | –
3 | O=C1CCC(N2Cc3cc(Cn4ncc5c(-c6ncccc6Cl)cc(N6CC(F)C6)nc54)ccc3C2=O)C(=O)N1 (stereo not drawn) [Example 89, 3-(5-{[4-(3-chloropyridin-2-yl)-6-(3-fluoroazetidin-1-yl)-1H-pyrazolo[3,4-b]pyridin-1-yl]methyl}-1-oxo-2,3-dihydro-1H-isoindol-2-yl)piperidine-2,6-dione] | 8.17 | 24.94 | 13.4 | 8.18 | – | –
4 | CN(C)c1cc(-c2ncc(C#N)cc2Cl)c2c(n1)N(Cc1ccc3c(c1)CN(C1CCC(=O)NC1=O)C3=O)CC2 (stereo not drawn) [Example 14, 5-chloro-6-(6-(dimethylamino)-1-((2-(2,6-dioxopiperidin-3-yl)-1-oxoisoindolin-5-yl)methyl)-2,3-dihydro-1H-pyrrolo[2,3-b]pyridin-4-yl)nicotinonitrile] | – | 23.56 | – | 7.20 | 8.30 | 7.84
5 | O=C1CCC(N2Cc3cc(Cn4ncc5c(-c6ncccc6C(F)(F)F)cc(N6CC(F)C6)nc54)ccc3C2=O)C(=O)N1 (stereo not drawn) [Example 79, 3-(5-{[6-(3-fluoroazetidin-1-yl)-4-[3-(trifluoromethyl)pyridin-2-yl]-1H-pyrazolo[3,4-b]pyridin-1-yl]methyl}-1-oxo-2,3-dihydro-1H-isoindol-2-yl)piperidine-2,6-dione] | 8.49 | 23.53 | 8.56 | 10.79 | – | –
6 | CN(C)c1cc(-c2ccc(C#N)cc2Cl)c2cnn(Cc3ccc4c(c3)CN(C3CCC(=O)NC3=O)C4=O)c2n1 (stereo not drawn) [Example 12, 3-chloro-4-[6-(dimethylamino)-1-{[2-(2,6-dioxopiperidin-3-yl)-1-oxo-2,3-dihydro-1H-isoindol-5-yl]methyl}-1H-pyrazolo[3,4-b]pyridin-4-yl]benzonitrile] | 9.00 | 23.97 | 0.67 | 7.50 | – | –
7 | O=C1CC[C@H](N2Cc3cc(Cn4ncc5c(-c6ncc(C(F)(F)F)cc6Cl)cc(N6CC(F)C6)nc54)cnc3C2=O)C(=O)N1 [Example 77, (3S)-3-[3-({4-[3-chloro-5-(trifluoromethyl)pyridin-2-yl]-6-(3-fluoroazetidin-1-yl)-1H-pyrazolo[3,4-b]pyridin-1-yl}methyl)-7-oxo-5H,6H,7H-pyrrolo[3,4-b]pyridin-6-yl]piperidine-2,6-dione] | 8.44 | 28.95 | 8 | 8.29 | – | –
8 | O=C1CC[C@H](N2Cc3c(ccc(Cn4ncc5c(-c6ncc(F)cc6Cl)cc(N6CC(F)C6)nc54)c3F)C2=O)C(=O)N1 (single isomer, unassigned) [Example 61] | 8.15 | 35.56 | 3.6 | 7.65 | – | –
9 | O=C1CC[C@H](N2Cc3cc(Cn4ncc5c(-c6ncc(CF)cc6Cl)cc(N6CC(F)C6)nc54)ccc3C2=O)C(=O)N1 [Example 72, (3S)-3-[5-({4-[3-chloro-5-(fluoromethyl)pyridin-2-yl]-6-(3-fluoroazetidin-1-yl)-1H-pyrazolo[3,4-b]pyridin-1-yl}methyl)-1-oxo-2,3-dihydro-1H-isoindol-2-yl]piperidine-2,6-dione] | 8.75 | 23.41 | 6.35 | 7.12 | – | –
10 | O=C1CC[C@H](N2Cc3cc(Cn4ncc5c(-c6ncc(C(F)(F)F)cc6Cl)c(F)c(N6CC(F)C6)nc54)ccc3C2=O)C(=O)N1 [Example 1, (3S)-3-[5-({4-[3-chloro-5-(trifluoromethyl)pyridin-2-yl]-5-fluoro-6-(3-fluoroazetidin-1-yl)-1H-pyrazolo[3,4-b]pyridin-1-yl}methyl)-1-oxo-2,3-dihydro-1H-isoindol-2-yl]piperidine-2,6-dione] | 9.77 | 27.59 | 0.14 | 7.57 | – | –
11 | Cc1cc(C(F)(F)F)cnc1-c1cc(N2CC(F)C2)nc2c1cnn2Cc1ccc2c(c1)CN(C1CCC(=O)NC1=O)C2=O (stereo not drawn) [Example 29, 3-(5-{[6-(3-fluoroazetidin-1-yl)-4-[3-methyl-5-(trifluoromethyl)pyridin-2-yl]-1H-pyrazolo[3,4-b]pyridin-1-yl]methyl}-1-oxo-2,3-dihydro-1H-isoindol-2-yl)piperidine-2,6-dione] | 8.91 | 30.94 | 0.71 | 8.83 | – | –
12 | Cc1cnc(-c2cc(N3CC(F)C3)nc3c2cnn3Cc2ccc3c(c2)CN(C2CCC(=O)NC2=O)C3=O)nc1 (stereo not drawn) [Example 138, 3-(5-{[6-(3-fluoroazetidin-1-yl)-4-(5-methylpyrimidin-2-yl)-1H-pyrazolo[3,4-b]pyridin-1-yl]methyl}-1-oxo-2,3-dihydro-1H-isoindol-2-yl)piperidine-2,6-dione] | 6.80 | 89.63 | ≥ 1000 | 87.20 | – | –
13 | O=C1CCC(N2Cc3cc(Cn4ncc5c(-c6nnccc6C(F)(F)F)cc(N6CC(F)C6)nc54)ccc3C2=O)C(=O)N1 (stereo not drawn) [Example 129, 3-(5-{[6-(3-fluoroazetidin-1-yl)-4-[4-(trifluoromethyl)pyridazin-3-yl]-1H-pyrazolo[3,4-b]pyridin-1-yl]methyl}-1-oxo-2,3-dihydro-1H-isoindol-2-yl)piperidine-2,6-dione] | 6.30 | 92.49 | ≥ 1000 | 95.34 | – | –
14 | O=C1CCC(N2Cc3cc(Cn4ncc5c(-c6ncc(Cl)cc6F)cc(N6CC(F)C6)nc54)ccc3C2=O)C(=O)N1 (stereo not drawn) [Example 90, 3-(5-{[4-(5-chloro-3-fluoropyridin-2-yl)-6-(3-fluoroazetidin-1-yl)-1H-pyrazolo[3,4-b]pyridin-1-yl]methyl}-1-oxo-2,3-dihydro-1H-isoindol-2-yl)piperidine-2,6-dione] | 7.98 | 37.96 | 13.6 | 15.97 | – | –
15 | COc1cc(C2CC2)cnc1-c1cc(N2CC(F)C2)nc2c1cnn2Cc1ccc2c(c1)CN(C1CCC(=O)NC1=O)C2=O (stereo not drawn) [Example 135, 3-(5-{[4-(5-cyclopropyl-3-methoxypyridin-2-yl)-6-(3-fluoroazetidin-1-yl)-1H-pyrazolo[3,4-b]pyridin-1-yl]methyl}-1-oxo-2,3-dihydro-1H-isoindol-2-yl)piperidine-2,6-dione] | ≤ 5.00 | 84.14 | ≥ 1000 | 87.67 | – | –
16 | Cc1cnc(-c2cc(N3CC(F)C3)nc3c2cnn3Cc2ccc3c(c2)CN(C2CCC(=O)NC2=O)C3=O)c(C)c1 (stereo not drawn) [Example 85, 3-(5-{[4-(3,5-dimethylpyridin-2-yl)-6-(3-fluoroazetidin-1-yl)-1H-pyrazolo[3,4-b]pyridin-1-yl]methyl}-1-oxo-2,3-dihydro-1H-isoindol-2-yl)piperidine-2,6-dione] | 8.17 | 35.10 | 11.1 | 11.71 | – | –
17 | CCOc1cnc(-c2cc(N3CC(F)C3)nc3c2cnn3Cc2ccc3c(c2)CN([C@H]2CCC(=O)NC2=O)C3=O)c(C(F)(F)F)c1 [Example 32, (3S)-3-[5-({4-[5-ethoxy-3-(trifluoromethyl)pyridin-2-yl]-6-(3-fluoroazetidin-1-yl)-1H-pyrazolo[3,4-b]pyridin-1-yl}methyl)-1-oxo-2,3-dihydro-1H-isoindol-2-yl]piperidine-2,6-dione] | 9.36 | 9.16 | 0.82 | 9.44 | – | –
18 | C[C@]1(O)CCN(c2cc(-c3ccc(C#N)cc3F)c3cnn(Cc4ccc5c(c4)CN(C4CCC(=O)NC4=O)C5=O)c3n2)C1 (stereo partly drawn) [Example 115, 4-(1-{[2-(2,6-dioxopiperidin-3-yl)-1-oxo-2,3-dihydro-1H-isoindol-5-yl]methyl}-6-[(3S)-3-hydroxy-3-methylpyrrolidin-1-yl]-1H-pyrazolo[3,4-b]pyridin-4-yl)-3-fluorobenzonitrile] | 6.93 | 59.97 | 65.3 | 53.22 | – | –
